# Data published in patent US12263187B2, “Treatment of bone marrow pathologies with polysulfated polysaccharides” (PARADIGM BIOPHARMACEUTICALS LTD, priority 2017, dated 2025).
# Entries after “also recorded” stand apart in the source; their conditions may differ.
# Experiments:
# [1] = tested on: Knee OA patients with Bone Marrow Edema Lesions; assay: Example 1: PPS in knee OA patients with Bone Marrow Edema Lesions on MRI (TGA Special Access Scheme); assay type: in vivo, human; design: key to After PPS/BMEL: Severe: (>20 mm); Moderate: (5 mm to 20 mm); Minimal: (<5 mm); Absent; settings: for After PPS/BMEL / After PPS/NRS Pain / After PPS/Lysholm Knee Score: 2 mg/kg IM 2x weekly for 3 weeks; for After PPS/NRS Pain / After PPS/Lysholm Knee Score: scored 2 to 4 weeks after last injection; for After PPS/NRS Pain: scale 0-10; for After PPS/Lysholm Knee Score: scale 0-100
# Source text: Example 1 is a study of the safety, tolerability and results of patients treated with PPS with Bone Marrow Edema Lesions of the knee and suffering from osteoarthritis under the TGA Special Access Scheme (B). (Approval to use PPS as treatment for the patient was acquired from Department of Health-Therapeutic Goods Administration, Australian Government under the Special Access Scheme (SAS) since the injectable form of PPS was not a registered product in Australia.)
# Patients in the study had the following characteristics: • High pain scores • Poor joint function scores • MRI evidence of Bone Marrow Edema Lesions and joint effusions • Kellgren-Lawrence (3-4) OA subjects currently on waiting list for Total Knee Replacement • Failed standard of care including intraarticular injections of corticosteroids • The protocol featured the following: • Treatment: 2× weekly intramuscular injections of 2 mg/kg for 3 weeks (total of 6 injections) • All patients abstained from NSAIDs during PPS treatment • The treatment outcomes of pain and function were scored before and after PPS treatment 2 to 4 weeks after the last PPS injection • All patients had baseline subchondral BML.
# Numerical Rating Scale (NRS) is an 11-point scale (0-10). A state of no pain is 0 and the worst pain imaginable is 10.
# Lysholm Knee Score is a total score of 0-100 is calculated based on the results from the eight functional components of the Lysholm knee score scale: Limp (5 points), Support (5 points), Locking (15 points), Instability (25 points), Pain (25 points), Swelling (10 points), Stair climbing (10 points), and Squatting (5 points). The total score is assigned to rating categories as follows: 95-100 indicates excellent, 84-94 indicates good, 65-83 indicates fair and <65 indicates poor function.
# [2] = fraction of the activity of heparin; cited from earlier work
# [3] = tested on: patient with chronic lower back pain with a Modic Type 1 pattern on MRI; assay: Example 3: case report for chronic low back pain with Modic Type 1 pattern; assay type: in vivo, human; settings: patient one
# Description: Patient one, a person with chronic lower back pain with a Modic Type 1 pattern on MRI scan of the L3/L4 and L4 L5 region of the spine presented in the clinics with unresolved persistent pain despite current standard of care treatment with Mobic, an NSAID.
# The baseline NRS pain score prior to treatment with PPS was a high score of 7. Patient was administered by subcutaneous injection a dose of 150 mg fixed dose of PPS twice weekly for 4 weeks (ie a total of 8 injections). […] During the course of the treatment the patient had abstained from any other therapeutic intervention.
# [4] = tested on: Knee OA patients with Bone Marrow Edema Lesions; assay: Example 1: PPS in knee OA patients with Bone Marrow Edema Lesions on MRI (TGA Special Access Scheme); assay type: in vivo, human; settings: standard four week course of PPS
# Modic Changes = assay: Further work: Modic Changes assessed by MRI after SC PPS twice-weekly for 6 weeks; assay type: in vivo; settings: 2 mg/kg PPS or fixed dose of 150 mg, slow SC injection twice-weekly for 6 weeks
# BMEL = assay: Further work: BMEL assessed by MRI after SC PPS twice-weekly for 6 weeks; assay type: in vivo; settings: 2 mg/kg PPS or fixed dose of 150 mg, slow SC injection twice-weekly for 6 weeks
# [5] = tested on: person with knee osteoarthritis and subchondral bone marrow edema lesions; assay: Example 2: case report of knee osteoarthritis with subchondral BML; assay type: in vivo, human
# Description: The patient was administered a course of Pentosan Polysulphate Sodium (PPS) intramuscularly twice weekly for 3 weeks. […] These MRI interpretations corroborate improved clinical outcome measures ensuing therapeutic intervention with PPS.
# A person with a history of arthroscopic partial medial meniscectomy presented with pain of the left knee and was on a waiting list for total knee replacement. […] The BML in the medial femoral condyle measured 11×7×12 mm (CC×transverse×AP) and the medial tibial plateau BML measured 8×8×8 mm (CC×transverse×AP). […] Following patient consent, the pain assessment score was determined by the Numerical Rating Scale (NRS) and functional capacity assessments included the Lysholm knee score. At pre-treatment, the NRS pain score was severe with a score of 8 out of 10 (range 0-10) and the Lysholm Knee score was 37 out of 100 reflecting poor knee function indicated by problems in stair climbing and limping.
# Since PPS is a weak anticoagulant with 1/15 the activity of heparin, the patient was monitored for safety by assessments of complete blood count, APTT, prothrombin time, liver function tests, renal function tests and serum calcium prior to commencement of treatment and periodically during treatment with Pentosan Polysulphate Sodium. The clinical status of the patient was checked regularly throughout the course of the treatment and follow up period.
# After evaluation, the patient was considered suitable for treatment with Pentosan Polysulphate Sodium (PPS) under the SAS. The patient was administered 2 mg/kg of PPS twice weekly with a minimum of three and a maximum of four days between dosages. Six intramuscular injections were administered into the gluteus maximus muscle over a three-week period (2 injections per week). Three follow-up appointments were made at 10, 24 and 38 days post-completion of injection regimen.
substance,measurement,setting,value
Pentosan Polysulphate Sodium [PPS],After PPS/BMEL,"[1]; patient four, before PPS: Moderate (5 mm to 20 mm)",Minimal ((<5 mm))
same,After PPS/NRS Pain,"[1]; patient four, before PPS: 4",1
same,After PPS/Lysholm Knee Score,"[1]; patient four, before PPS: 73",90
same,After PPS/BMEL,"[1]; patient three, before PPS: Severe (>20 mm)",Moderate ((5 mm to 20 mm))
same,After PPS/NRS Pain,"[1]; patient three, before PPS: 4",0
same,After PPS/Lysholm Knee Score,"[1]; patient three, before PPS: 54",73
same,After PPS/BMEL,"[1]; patient two, before PPS: Moderate (5 mm to 20 mm)",Absent
same,After PPS/NRS Pain,"[1]; patient two, before PPS: 8",0
same,After PPS/Lysholm Knee Score,"[1]; patient two, before PPS: 37",70
same,adverse events,"[1]; patients with BMEL and osteoarthritis under TGA SAS(B), 2 mg/kg IM 2x weekly",no adverse events were reported
same,anticoagulant activity relative to heparin,[2],1/15
same,pain soon after the 4th injection,[3]; 150 mg fixed dose SC twice weekly,improvement in pain
same,adverse events,"[3]; 150 mg fixed dose SC twice weekly for 4 weeks, during and after treatment",No adverse events
same,BMEL on MRI,[4],clearly visible BMEL reduction
same,pain and mobility scores,[4],improved
same,Modic Changes as assessed by magnetic resonance imaging,Modic Changes,consistent resolution
same,BMEL volume as assessed by magnetic resonance imaging,BMEL,consistent BMEL volume reduction
same,bone marrow oedema lesions at the medial femoral condyle and medial tibial plateau on MRI,"[5]; 2 mg/kg IM twice weekly for 3 weeks (6 injections), MRI five weeks after first injection, pre-treatment BML 11x7x12 mm and 8x8x8 mm",resolution of medial compartment bone oedema; also recorded: complete resolution; also recorded: complete reduction
same,knee (joint) effusion on MRI,"[5]; 2 mg/kg IM twice weekly for 3 weeks, axial imaging at level of suprapatellar pouch, five weeks after first injection",reduction in size of knee effusion; also recorded: complete resolution; also recorded: marked reduction; also recorded: reduction in the size
same,adverse events,"[5]; 2 mg/kg IM twice weekly for 3 weeks, during treatment and follow up period",did not present with any drug-related or nondrug-related adverse response; also recorded: did not report any adverse effects; also recorded: no post-treatment adverse events
same,improvement of the Lysholm Knee score,"[5]; 2 mg/kg IM twice weekly for 3 weeks, four weeks after the last injection, 37 to 65",43%
same,Lysholm Knee score post-treatment,"[5]; 2 mg/kg IM twice weekly for 3 weeks, four weeks after the last injection, scale 0-100, pre-treatment score 37",65
same,NRS pain score post-treatment,"[5]; 2 mg/kg IM twice weekly for 3 weeks, scale 0-10, pre-treatment score 8",0
